Experimental data from ChEMBL document CHEMBL1201862, “PubChem BioAssay data set” (2004).
The source made the active and inactive calls.

Tests used:
[1] = target: DNA dC->dU-editing enzyme APOBEC-3G (Homo sapiens, UniProt Q9HC16); experiment: Dose Response confirmation of small molecule APOBEC3G DNA Deaminase Inhibitors via a fluorescence-based single-stranded DNA deaminase assay. [Related pubchem assays (depositor defined):AID493012, AID493028]; assay type: functional
[2] = target: DNA dC->dU-editing enzyme APOBEC-3A (Homo sapiens, UniProt P31941); experiment: APOBEC3A DNA deaminase inhibitors, dose response, biochemical (AID 504722); assay type: functional
Sequence of DNA dC->dU-editing enzyme APOBEC-3A (P31941 whole entry): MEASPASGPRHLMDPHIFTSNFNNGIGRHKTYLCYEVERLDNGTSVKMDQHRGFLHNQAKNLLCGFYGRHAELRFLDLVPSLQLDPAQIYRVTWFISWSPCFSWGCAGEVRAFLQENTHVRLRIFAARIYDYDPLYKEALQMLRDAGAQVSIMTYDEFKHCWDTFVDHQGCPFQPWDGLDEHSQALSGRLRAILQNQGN

[3] = target: Lysosomal acid glucosylceramidase (Homo sapiens, UniProt P04062); experiment: Dose response cell-based high throughput screening assay to identify enhancers of beta-glucosidase activity. [Related pubchem assays: 784 ]; assay type: functional
Sequence of Lysosomal acid glucosylceramidase (P04062 whole entry): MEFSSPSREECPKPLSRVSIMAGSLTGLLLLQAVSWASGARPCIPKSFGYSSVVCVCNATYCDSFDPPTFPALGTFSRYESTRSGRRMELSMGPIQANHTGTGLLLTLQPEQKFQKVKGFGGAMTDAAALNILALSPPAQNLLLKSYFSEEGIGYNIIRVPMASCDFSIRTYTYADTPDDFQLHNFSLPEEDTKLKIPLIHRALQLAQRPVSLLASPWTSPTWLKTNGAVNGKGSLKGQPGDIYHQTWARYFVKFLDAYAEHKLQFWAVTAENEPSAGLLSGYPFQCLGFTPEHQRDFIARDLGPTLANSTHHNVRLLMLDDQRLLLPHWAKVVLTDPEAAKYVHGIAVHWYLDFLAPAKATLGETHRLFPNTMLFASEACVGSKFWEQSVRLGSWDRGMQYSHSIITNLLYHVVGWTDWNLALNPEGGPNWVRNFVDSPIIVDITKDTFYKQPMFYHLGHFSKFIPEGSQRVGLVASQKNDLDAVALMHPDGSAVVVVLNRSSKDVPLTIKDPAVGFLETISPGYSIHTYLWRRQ

[4] = target: T1, Replicative DNA helicase DnaB (Mycobacterium tuberculosis, UniProt P9WMR3); experiment: DnaB intein splicing inhibitors, dose response, biochemical, cell-free fluorescence (AID 449749); assay type: functional
T1 sequence (P9WMR3 whole entry): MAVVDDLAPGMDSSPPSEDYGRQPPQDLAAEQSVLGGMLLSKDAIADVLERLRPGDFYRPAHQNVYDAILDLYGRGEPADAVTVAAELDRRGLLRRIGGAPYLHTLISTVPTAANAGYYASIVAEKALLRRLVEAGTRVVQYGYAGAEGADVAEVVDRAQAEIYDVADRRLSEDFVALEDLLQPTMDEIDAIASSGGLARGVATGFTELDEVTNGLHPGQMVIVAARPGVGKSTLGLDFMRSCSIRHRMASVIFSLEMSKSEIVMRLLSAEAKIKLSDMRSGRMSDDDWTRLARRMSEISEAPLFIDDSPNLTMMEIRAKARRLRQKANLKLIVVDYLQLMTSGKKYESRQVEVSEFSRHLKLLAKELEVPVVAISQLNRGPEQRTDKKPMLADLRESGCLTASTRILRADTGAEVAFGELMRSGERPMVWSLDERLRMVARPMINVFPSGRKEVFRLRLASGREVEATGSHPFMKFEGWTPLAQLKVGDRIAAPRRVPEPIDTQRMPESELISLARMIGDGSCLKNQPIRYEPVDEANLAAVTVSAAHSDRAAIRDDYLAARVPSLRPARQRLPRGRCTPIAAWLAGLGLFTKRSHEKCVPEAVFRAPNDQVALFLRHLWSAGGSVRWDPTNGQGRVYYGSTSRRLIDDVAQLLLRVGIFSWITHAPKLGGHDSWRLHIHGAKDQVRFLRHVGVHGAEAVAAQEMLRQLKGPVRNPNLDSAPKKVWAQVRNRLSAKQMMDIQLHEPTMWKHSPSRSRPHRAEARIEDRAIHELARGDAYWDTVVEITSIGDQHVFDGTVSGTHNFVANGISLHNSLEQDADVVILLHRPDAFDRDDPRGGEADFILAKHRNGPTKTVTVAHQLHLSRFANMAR

BJ [5] = experiment: cytotoxicity toward BJ-TERT fibroblasts, dose response, cell-based, RAS-independent, luminescence (AID 1933); assay type: functional; conditions: Homo sapiens
BJ [6] = experiment: cells; assay type: functional, cell-based; conditions: Homo sapiens
[7] = Intein inhibitors as potential Tuberculosis drugs, a cytotoxicity screen. [Related pubchem assays (depositor defined):AID2221, AID2223, AID434968, AID435010, AID449749, AID449750, AID489010]; assay type: functional
[8] = non-specific cell cytotoxicity, dose response, cytotoxicity control for PAX8 inhibitor project, plate reader, dry powder samples (AID 743021); assay type: functional, cell-based
Protein RecA = target: T2, Protein RecA (Mycobacterium tuberculosis, UniProt P9WHJ3); experiment: Fluorescence Cell-Free Homogeneous Dose Retest to Identify Inhibitors of RecA-Intein Splicing Activity. [Related pubchem assays (depositor defined):AID2097, AID2223, AID489010, AID492950]; assay type: functional
T2 sequence (P9WHJ3 whole entry): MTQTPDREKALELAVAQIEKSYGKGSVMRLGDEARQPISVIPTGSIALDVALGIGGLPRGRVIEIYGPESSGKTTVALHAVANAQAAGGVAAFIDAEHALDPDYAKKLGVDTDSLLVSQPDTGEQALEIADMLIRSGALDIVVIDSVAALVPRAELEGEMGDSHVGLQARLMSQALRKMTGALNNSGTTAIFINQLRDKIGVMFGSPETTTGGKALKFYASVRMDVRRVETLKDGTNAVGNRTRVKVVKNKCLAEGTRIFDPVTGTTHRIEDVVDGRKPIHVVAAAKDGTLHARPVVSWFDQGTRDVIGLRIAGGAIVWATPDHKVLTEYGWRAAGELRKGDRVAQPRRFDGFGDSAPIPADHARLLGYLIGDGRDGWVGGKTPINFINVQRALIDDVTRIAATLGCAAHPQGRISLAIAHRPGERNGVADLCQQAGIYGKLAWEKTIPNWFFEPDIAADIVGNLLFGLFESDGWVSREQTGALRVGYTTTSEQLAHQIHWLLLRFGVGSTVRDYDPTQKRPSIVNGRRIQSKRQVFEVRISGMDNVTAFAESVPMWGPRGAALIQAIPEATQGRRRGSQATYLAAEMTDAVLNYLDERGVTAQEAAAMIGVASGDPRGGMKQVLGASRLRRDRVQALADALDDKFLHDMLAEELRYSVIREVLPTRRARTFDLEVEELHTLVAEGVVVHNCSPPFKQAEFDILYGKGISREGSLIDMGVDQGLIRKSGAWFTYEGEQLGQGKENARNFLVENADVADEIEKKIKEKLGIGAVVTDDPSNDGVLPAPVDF

BJ [9] = experiment: cytotoxicity toward BJ-TERT-LT-ST fibroblasts, dose response, cell-based, RAS-independent, luminescence (AID 1935); assay type: functional; conditions: Homo sapiens;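 further: BJ fibroblasts immortalized with TERT plus LT and ST oncogenes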
Paired box protein Pax-8 = Paired box protein Pax-8 (Homo sapiens, UniProt Q06710); experiment: inhibitors of PAX8-driven TPO luciferase reporter, dose response, RMG-I cells, cherry-pick (AID 687027); assay type: functional, cell-based;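 further: luciferase reporter driven by Pax8 target thyroperoxidase promoter measured by SteadyGlo luminescence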
Sequence of Paired box protein Pax-8 (Q06710 whole entry): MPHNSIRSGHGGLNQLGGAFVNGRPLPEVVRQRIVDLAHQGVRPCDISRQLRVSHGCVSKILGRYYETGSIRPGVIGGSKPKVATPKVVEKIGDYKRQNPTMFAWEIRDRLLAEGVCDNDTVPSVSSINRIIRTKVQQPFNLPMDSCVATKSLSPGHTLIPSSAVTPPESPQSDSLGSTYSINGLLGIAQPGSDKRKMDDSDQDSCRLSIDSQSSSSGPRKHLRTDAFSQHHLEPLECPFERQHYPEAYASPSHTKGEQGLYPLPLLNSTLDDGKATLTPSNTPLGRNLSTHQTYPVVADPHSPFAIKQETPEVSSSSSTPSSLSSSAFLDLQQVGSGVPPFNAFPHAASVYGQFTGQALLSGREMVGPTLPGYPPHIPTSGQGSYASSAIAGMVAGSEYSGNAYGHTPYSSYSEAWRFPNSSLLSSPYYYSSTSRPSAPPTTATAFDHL

[10] = cytotoxicity toward DRD oncogenic fibroblasts, dose response, cell-based, non-viral oncogenic, luminescence (AID 1934); assay type: functional; conditions: Homo sapiens
[11] = target: Dual specificity protein phosphatase 3 (Homo sapiens, UniProt P51452); experiment: SAR VHR1 Fluorescent Assay for In Vitro dose response studies Set 2. [Related pubchem assays (depositor defined):AID1654, AID1661, AID1878]; assay type: functional
Sequence of Dual specificity protein phosphatase 3 (P51452 whole entry): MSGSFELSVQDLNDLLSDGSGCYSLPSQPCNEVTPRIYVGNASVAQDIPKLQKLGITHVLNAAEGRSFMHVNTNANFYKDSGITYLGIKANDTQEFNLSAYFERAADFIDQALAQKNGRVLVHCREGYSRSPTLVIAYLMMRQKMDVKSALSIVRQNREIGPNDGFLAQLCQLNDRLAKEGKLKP

[12] = target: T3, Tyrosine-protein phosphatase non-receptor type 7 (Homo sapiens, UniProt P35236); experiment: SAR analysis of chemical inhibitors of HePTP using a Fluorescent assay - Set 2. [Related pubchem assays (depositor defined):AID1059, AID1077, AID1661, AID2085, AID521]; assay type: functional
T3 sequence (P35236 whole entry): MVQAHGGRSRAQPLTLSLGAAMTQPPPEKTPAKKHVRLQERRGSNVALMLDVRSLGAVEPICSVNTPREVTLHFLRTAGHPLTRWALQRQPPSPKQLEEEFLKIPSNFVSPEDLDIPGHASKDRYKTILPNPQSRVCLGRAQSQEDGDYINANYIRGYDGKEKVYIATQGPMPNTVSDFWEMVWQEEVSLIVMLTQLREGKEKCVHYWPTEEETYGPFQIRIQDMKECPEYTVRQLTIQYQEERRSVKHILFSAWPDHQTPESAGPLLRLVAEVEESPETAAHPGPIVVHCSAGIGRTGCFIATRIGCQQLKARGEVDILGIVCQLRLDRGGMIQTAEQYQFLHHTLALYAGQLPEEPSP

[13] = target: T4, Neuropeptide Y receptor type 2 (Homo sapiens, UniProt P49146); experiment: Fluorescence-based cell-based high-throughput dose response assay for agonists of NPY-Y2. [Related pubchem assays: 1703 (Screening assay (CNGC inhibitors).), 1359 (Screening assay (NPY-Y2 potentiators or agonists).), 1304 (Screening assay (NPY-Y1 potentiators or agonists).), 1710 (Screening assay (NPY-Y2 agonists).), 1791 (Summary AID.)]; assay type: functional
T4 sequence (P49146 whole entry): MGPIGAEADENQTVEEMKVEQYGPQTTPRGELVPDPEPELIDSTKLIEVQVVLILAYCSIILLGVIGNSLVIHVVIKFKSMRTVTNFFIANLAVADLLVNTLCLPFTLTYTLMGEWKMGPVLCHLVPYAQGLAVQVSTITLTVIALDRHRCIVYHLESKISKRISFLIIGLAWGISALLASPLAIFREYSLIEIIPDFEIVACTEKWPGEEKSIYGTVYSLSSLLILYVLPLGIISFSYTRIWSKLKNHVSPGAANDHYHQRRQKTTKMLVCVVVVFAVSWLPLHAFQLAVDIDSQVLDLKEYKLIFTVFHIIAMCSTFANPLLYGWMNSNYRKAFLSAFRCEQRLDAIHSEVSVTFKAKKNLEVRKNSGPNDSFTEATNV

HEK293 = experiment: Fluorescence-based counterscreen for potentiators or agonists of NPY-Y2: cell-based high-throughput dose response assay to identify inhibitors of cyclic nucleotide gated ion channel (CNGC) activity. In this assay, the parental HEK293 cell line transfected with a cyclic-nucleotide gated ion channel (CNGC)-based cAMP sensor is used to measure inhibition of isoproterenol-induced CNGC activity by test compound.; assay type: functional; conditions: Homo sapiens;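 further: stimulus is 1 µM isoproterenol at EC100 plus PDE inhibitor Ro 20-1724 at 25 µM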
[14] = target: T5, Neuropeptide Y receptor type 1 (Homo sapiens, UniProt P25929); experiment: Fluorescence-based counterscreen for agonists of NPY-Y2: cell-based high-throughput dose response assay for agonists of NPY-Y1.; assay type: functional
T5 sequence (P25929 whole entry): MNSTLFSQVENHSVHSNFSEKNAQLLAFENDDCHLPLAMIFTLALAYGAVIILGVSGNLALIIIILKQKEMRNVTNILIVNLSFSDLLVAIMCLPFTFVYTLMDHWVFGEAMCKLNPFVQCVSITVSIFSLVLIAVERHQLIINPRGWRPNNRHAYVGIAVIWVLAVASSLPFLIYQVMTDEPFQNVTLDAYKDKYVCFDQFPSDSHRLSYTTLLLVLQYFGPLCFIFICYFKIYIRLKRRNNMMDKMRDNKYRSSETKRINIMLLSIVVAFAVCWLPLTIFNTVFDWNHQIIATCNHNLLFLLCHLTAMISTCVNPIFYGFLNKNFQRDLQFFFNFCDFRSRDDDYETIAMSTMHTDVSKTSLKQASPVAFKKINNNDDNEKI

[15] = target: T6, Heat shock factor protein 1 (Mus musculus, UniProt P38532); experiment: HSF1 potentiators in luciferase reporter cells, confirmation, cell-based, NIH3T3, luminescence, dose retest (AID 435004); assay type: functional;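 further: stress induced by proteasome inhibitor MG132 added 30 min after compound; luciferase reporter driven by HSF1 response element in NIH3T3 cells; actives raise luminescence as potentiators of the MG132 stress response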
T6 sequence (P38532 whole entry): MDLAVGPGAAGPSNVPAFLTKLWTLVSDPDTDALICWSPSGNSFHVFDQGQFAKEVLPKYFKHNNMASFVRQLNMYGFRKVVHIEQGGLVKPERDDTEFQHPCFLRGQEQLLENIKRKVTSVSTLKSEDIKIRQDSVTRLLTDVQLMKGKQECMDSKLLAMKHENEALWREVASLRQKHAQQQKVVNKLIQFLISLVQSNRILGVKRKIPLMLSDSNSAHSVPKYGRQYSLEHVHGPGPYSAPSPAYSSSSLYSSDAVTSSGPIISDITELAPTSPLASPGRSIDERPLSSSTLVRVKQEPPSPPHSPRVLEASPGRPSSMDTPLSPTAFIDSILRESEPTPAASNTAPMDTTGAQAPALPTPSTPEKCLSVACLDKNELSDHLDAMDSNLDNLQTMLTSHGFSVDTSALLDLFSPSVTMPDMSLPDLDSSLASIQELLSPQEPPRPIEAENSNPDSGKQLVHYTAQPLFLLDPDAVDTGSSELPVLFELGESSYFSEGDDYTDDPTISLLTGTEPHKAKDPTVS
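Wherever CC50 is given: cells exposed to compound for 72 hours before luminescence readout.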

Sequence of DNA dC->dU-editing enzyme APOBEC-3G (Q9HC16 whole entry): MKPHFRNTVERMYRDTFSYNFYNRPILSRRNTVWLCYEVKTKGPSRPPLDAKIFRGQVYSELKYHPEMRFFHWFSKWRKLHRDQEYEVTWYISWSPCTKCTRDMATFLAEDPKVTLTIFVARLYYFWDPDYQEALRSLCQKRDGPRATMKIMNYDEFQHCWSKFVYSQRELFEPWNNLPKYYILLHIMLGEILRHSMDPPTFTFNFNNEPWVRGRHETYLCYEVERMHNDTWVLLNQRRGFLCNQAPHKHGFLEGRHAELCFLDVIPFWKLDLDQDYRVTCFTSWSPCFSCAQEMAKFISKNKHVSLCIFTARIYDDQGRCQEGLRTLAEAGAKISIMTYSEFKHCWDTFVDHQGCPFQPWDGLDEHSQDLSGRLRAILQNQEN

Q: What does the source list for `N#Cc1c(-c2ccncc2)c2c([nH]c1=S)CCCC2`?
A: IC50 [1]: 2.21 µM (active); IC50 [2]: > 100 µM (inactive)

Q: For `COc1cccc(NC(=O)C2C3C=CC4(O3)C2C(=O)N(C(C)C)C4C(=O)NC2CCCCC2C)c1` (stereo not drawn), which EC50 [3] is on record?
A: Its EC50 is > 50 µM (not active).

Q: Which AC50 [4] does the source give for `CC(=O)n1cc(N(C(=O)CCl)c2ccccc2)c2ccccc21` here?
A: Its AC50 is 2.3 µM (active).

Q: What about the EC50 (BJ [5]) of the same compound?
A: Its EC50 is 0.654 µM (inconclusive).

Q: And the EC50 (BJ [6])?
A: The EC50 was 1.51 µM (inconclusive).

Q: And the CC50 [7]?
A: Its CC50 is 1.16 µM (active).

Q: What about the AC50 [8] of the same compound?
A: Its AC50 is 4.84 µM (active).

Q: And the EC50 (Protein RecA)?
A: The EC50 was 0.347 µM (active).

Q: And the EC50 (BJ [9])?
A: The EC50 was 5.99 µM (active).

Q: And the AC50 (Paired box protein Pax-8)?
A: Its AC50 is 1.34 µM (active).

Q: What about the EC50 [10] of the same compound?
A: The EC50 was 0.912 µM (active).

Q: With `NS(=O)(=O)c1ccc(NC(=S)N2CCN(Cc3ccccc3)CC2)cc1` as the compound, how does the IC50 [11] read?
A: The IC50 was 38.1 µM (active).

Q: What about the IC50 [12] of the same compound?
A: The IC50 was 49.7 µM (active).

Q: Which EC50 [13] does the source give for `O=C(c1ccc(F)cc1F)C1CCN(c2ccc([N+](=O)[O-])cn2)CC1` here?
A: Its EC50 is 27.5 µM (not active).

Q: What about the EC50 (HEK293) of the same compound?
A: The EC50 was > 35.4 µM (not active).

Q: And the EC50 [14]?
A: Its EC50 is > 35.4 µM (not active).

Q: What about the EC50 [15] of the same compound?
A: The EC50 was > 260 µM (inactive).
